Data reported in patent EP2385948B1, “FUSED THIAZOLO AND OXAZOLO PYRIMIDINONES” (Torrent Pharmaceuticals Limited, priority 2009, dated 2011).
Counter-ions that a name gives are not always drawn. One block for each compound: values may come before it.

Legend:
adrenomedullin mRNA = assay: In vitro induction of adrenomedullin mRNA (real-time PCR, normalized to 18S rRNA); assay type: cell-based; conditions: Hep3B cell line, relative to vehicle control; for fold induction at 200 µM: Homo sapiens, Hep3B, 6 h
Experimental: Hep3B cell line (ATCC HB8064) was employed. […] At the end of 6 hours, cells were lysed and total RNA was isolated. Expression of adrenomedullin mRNA along-with expression of 18S rRNA was monitored by real-time PCR. Adrenomedullin mRNA expression was normalized relative to the expression of 18S rRNA. The results were expressed as fold induction of adrenomedullin mRNA relative to vehicle treated control.

erythropoietin = assay: In vitro erythropoietin induction (ELISA of cell culture supernatant); conditions: for fold induction at 200 µM: read-out: EPO fold induction, Hep3B cell line, 200 uM, 16 hours, relative to vehicle control; for EPO fold induction: Hep3B cell line, 200 uM, 16 hours, relative to vehicle control
Experimental: Hep3B cell line (ATCC HB8064) was employed. Induction of erythropoietin was carried out for the indicated dose of compounds for 16 hours duration. At the end of 16 hours, cell culture medium was collected and centrifuged to remove any debris. Supernatant obtained was analyzed for erythropoietin by ELISA (R&D systems, USA). The results were expressed as fold induction as compared to vehicle control.

Compound: O=C(O)CNC(=O)c1c(O)nc2sc3c(n2c1=O)CCN(Cc1ccc(Cl)c(Cl)c1)C3 [Compound 49, {[7-(3,4-Dichloro-benzyl)-2-hydroxy-4-oxo-5,6,7,8-tetrahydro-4H-9-thia-1,4a,7-triaza-fluorene-3-carbonyl]-amino}-acetic acid]
fold induction at 200 µM (adrenomedullin mRNA): 5 to 8 | fold induction at 200 µM (erythropoietin; Homo sapiens, Hep3B, 16 h): 5 to 8

Compound: O=C(O)CNC(=O)c1c(O)nc2sc3c(n2c1=O)CCN(Cc1ccc(C(F)(F)F)cc1)C3 [Compound 52, {[2-Hydroxy-4-oxo-7-(4-trifluoromethyl-benzyl)-5,6,7,8-tetrahydro-4H-9-thia-1,4a,7-triaza-fluorene-3-carbonyl]-amino}-acetic acid]
fold induction at 200 µM (adrenomedullin mRNA): 5 to 8 | fold induction at 200 µM (erythropoietin; Homo sapiens, Hep3B, 16 h): 5 to 8

Compound: CC1(C)CCc2sc3nc(O)c(C(=O)NCC(=O)O)c(=O)n3c2C1 [Compound 60, [(2-Hydroxy-6,6-dimethyl-4-oxo-5,6,7,8-tetrahydro-4H-9-thia-1,4a-diaza-ftuorene-3-carbonyl)-amino]-acetic acid]
fold induction at 200 µM (erythropoietin; Homo sapiens, Hep3B, 16 h): 5 to 8

Compound: CN(CC(=O)O)C(=O)c1c(O)nc2sc3c(n2c1=O)CCC(C)(C)C3 [Compound 61, [(2-Hydroxy-7,7-dimethyl-4-oxo-5,6,7,8-tetrahydro-4H-9-thia-1,4a-diaza-fluorene-3-carbonyl)-methyl-amino] -acetic acid]
fold induction at 200 µM (erythropoietin; Homo sapiens, Hep3B, 16 h): < 2

Compound: O=C(O)CNC(=O)c1c(O)nc2sc3c(n2c1=O)CCC(c1ccccc1)C3 (stereo not drawn) [Compound 64, [(2-Hydroxy-4-oxo-7-phenyl-5,6,7,8-tetrahydro-4H-9-thia-1,4a-diaza-fluorene-3-carbonyl)-amino]-acetic acid]
fold induction at 200 µM (erythropoietin; Homo sapiens, Hep3B, 16 h): < 2

Compound: O=C(O)CNC(=O)c1c(O)nc2sc3c(n2c1=O)CCOC3 [Compound 65, [(2-Hydroxy-4-oxo-5,8-dihydro-4H,6H-7-oxa-9-thia-1,4a-diaza-fluorene-3-carbonyl)-amino]-acetic acid]
fold induction at 200 µM (erythropoietin; Homo sapiens, Hep3B, 16 h): 5 to 8

Compound: O=C(O)CNC(=O)c1c(O)nc2sc3c(n2c1=O)CCS(=O)(=O)C3 [Compound 67, [(2-Hydroxy-4,7,7-trioxo-5,6,7,8-tetrahydro-4H-71ambda*6*,9-dithia-1,4a-diaza-fluorene-3-carbonyl)-amino]-acetic acid]
fold induction at 200 µM (erythropoietin; Homo sapiens, Hep3B, 16 h): 2 to 4

Compound: O=C(O)CNC(=O)c1c(O)nc2sc3c(n2c1=O)CCC1(CC1)C3 [Compound 70, N-[(2'-hydroxy-4'-oxo-6',9'-dihydro-4'H,7'H-spiro[cyclopropane-1,8'-pyrimido[2,1-b][1,3]benzothiazol]-3'-yl)carbonyl]glycine]
fold induction at 200 µM (erythropoietin; Homo sapiens, Hep3B, 16 h): 2 to 4

Compound: O=C(O)CNC(=O)c1c(O)nc2sc3c(n2c1=O)CCC(C(=O)O)C3 (stereo not drawn) [Compound 72, 3-(Carboxymethyl-carbamoyl)-2-hydroxy-4-oxo-5,6,7,8-tetrahydro-4H-9-thia-1,4a-diaza-fluorene-7-carboxylic acid]
fold induction at 200 µM (erythropoietin; Homo sapiens, Hep3B, 16 h): < 2

EPO fold induction (erythropoietin; Disodium salt, 960 min): ++++ (++++ indicates 9-16fold)
Compound: CC1(C)CCc2c(sc3nc(O)c(C(=O)NCC(=O)O)c(=O)n23)C1 [Compound 80, [(2-Hydroxy-7,7-dimethyl-4-oxo-5,6,7,8-tetrahydro-4H-9-thia-1,4a-diaza-fluorene-3-carbonyl)-amino]-acetic acid, Disodium salt]

Adrenomedullin mRNA (fold induction) (adrenomedullin mRNA; 200 uM, 6 hours, Disodium salt, 360 min): +++ (+++ indicates 5-8 fold)
Compound: O=C(O)CNC(=O)c1c(O)nc2sc3c(n2c1=O)CCCCC3 [Compound 82, [(2-Hydroxy-4-oxo-6,7,8,9-tetrahydro-4H,5H-10-thia-1,4a-diaza-benzo[a]azulene-3-carbonyl)-amino]-acetic acid, Disodium salt]
fold induction at 50 µM (erythropoietin; Homo sapiens, Hep3B, 16 h, read-out: EPO fold induction, Hep3B cell line, 50 uM, 16 hours, relative to vehicle control): 9 to 16

Compound: {[7-(3,5-Dimethoxy-benzoyl)-2-hydroxy-4-oxo-5,6,7,8-tetrahydro-4H-9-thia-1,4a,7-triaza-fluorene-3-carbonyl]-amino}-acetic acid [Compound 41]
EPO fold induction (erythropoietin): ++ (++ indicates 2-4 fold)
